The source of these data is DBAASP.

≈ marks a conversion by molar mass, not a printed value. Where “and” joins values, the source holds several entries; their conditions need not be identical. Identical values can stand only once.

The term MIC denotes the lowest concentration found to suppress growth. Low readings indicate a more susceptible organism, high ones a less susceptible organism.

Among the test systems are Serratia rubidaea X01; Spiroplasma citri R8A2; Escherichia coli 45849; Escherichia coli BL21AI; Escherichia coli D31; Acinetobacter baumannii; Escherichia coli D21; Micrococcus luteus; Staphylococcus simulans.
Assay in all cases: ≥ marks a high value that may be exact or a test limit, other limits are often not marked, values filed in µg/mL are converted to µM
Assay [1] concerns Candida albicans ATCC 90028.
The subject of assay [2] is Enterobacter cloacae HNTCC 53001.
Assay [3] has as its system Enterococcus faecalis ATCC 29212.
Assay [4] has as its system Escherichia coli ATCC 25922.
Assay [5] relates to Klebsiella pneumoniae KK3 9904.
Assay [6] relates to Proteus mirabilis ATCC 25933.
Assay [7] deals with Pseudomonas aeruginosa ATCC 27853.
Assay [8] has as its system Staphylococcus aureus NCTC 8325.
Assay [9] concerns Staphylococcus aureus T7/20.
Assay [10] deals with Staphylococcus epidermidis RP62A.
Assay [11] deals with Bacillus licheniformis X39.
Assay [12] relates to Candida albicans ATCC 10231.
Assay [13] concerns Enterococcus faecalis 981.
For assay [14], the system named is Klebsiella pneumoniae 08040724.
Assay [15] relates to Pseudomonas aeruginosa 11053.
For assay [16], the system named is Pseudomonas aeruginosa CGMCC 1.50.
Assay [17] deals with Psychrobacter faecalis X29.
Assay [18] deals with Rhodococcus rhodochrous X15.
Assay [19] deals with Staphylococcus aureus ATCC 25923.
Assay [20] relates to Staphylococcus carnosus KHS.
Assay [21] deals with Acholeplasma laidlawii A-EF22.
Assay [22] has as its system Mycoplasma mycoides ssp. mycoides SC KH3J.
Assay [23] relates to Spiroplasma floricola BNR 1.
The test system of assay [24] is Spiroplasma melliferum BC3.
Assay [25] has as its system Agrobacterium tumefaciens ATCC 15955.
The test system of assay [26] is Klebsiella pneumoniae 123132.
Assay [27] has as its system Klebsiella pneumoniae K6 ATCC 700603.
Assay [28] deals with Micrococcus luteus ATCC 10240.
Assay [29] deals with Salmonella enterica subsp. enterica serovar Typhi S5.
The subject of assay [30] is Salmonella enterica subsp. enterica serovar Typhimurium ATCC 700408.
The test system of assay [31] is Acinetobacter baumannii ATCC 19606.
Assay [32] has as its system Staphylococcus aureus II ATCC 6538P.
Assay [33] deals with Staphylococcus epidermidis LT1324.

`CC[C@H](C)[C@H](NC(=O)[C@H](CCCCN)NC(=O)[C@H](CO)NC(=O)[C@@H](NC(=O)[C@H](CC(C)C)NC(=O)[C@H](CO)NC(=O)[C@@H]1CCCN1C(=O)[C@H](CC(C)C)NC(=O)[C@H](C)NC(=O)[C@H](CO)NC(=O)[C@H](C)NC(=O)[C@H](CC(C)C)NC(=O)[C@H](C)NC(=O)CNC(=O)[C@@H](NC(=O)[C@@H](NC(=O)[C@H](CO)NC(=O)CNC(=O)[C@H](CC(C)C)NC(=O)[C@@H](N)Cc1ccccc1)[C@@H](C)CC)C(C)C)[C@@H](C)CC)C(=O)N[C@@H](CCCN=C(N)N)C(=O)N[C@@H](CC(N)=O)C(N)=O` [FLGSIVGALASALPSLISKIRN]: the minimum inhibitory concentration (MIC) in [1] is no less than 50 µM; in assay [2], no less than 50 µM; in [3] it was 50 µM (≈ 111 µg/mL); in assay [4], 25 µM (≈ 55.7 µg/mL); in assay [5] it was no less than 100 µM; in [6], no less than 100 µM. Moreover, the minimum inhibitory concentration (MIC) was 50 µM (≈ 111 µg/mL) in assay [7], 25 µM (≈ 55.7 µg/mL) in assay [8], 25 µM (≈ 55.7 µg/mL) in [9] and 12.5 µM (≈ 27.8 µg/mL) in [10].
`CC[C@H](C)[C@H](NC(=O)[C@H](CCCCN)NC(=O)[C@@H]1CCCN1C(=O)[C@H](CC(C)C)NC(=O)[C@H](Cc1ccccc1)NC(=O)[C@H](CC(N)=O)NC(=O)[C@H](C)NC(=O)[C@H](C)NC(=O)[C@H](CC(C)C)NC(=O)CNC(=O)[C@H](C)NC(=O)[C@H](CC(C)C)NC(=O)[C@H](CCSC)NC(=O)[C@@H]1CCCN1C(=O)[C@H](CC(C)C)NC(=O)[C@@H](N)Cc1ccccc1)C(=O)N[C@H](C(=O)N[C@H]1CSSC[C@@H](C(=O)O)NC(=O)[C@H](CCCCN)NC(=O)[C@H](CCCCN)NC(=O)[C@H]([C@@H](C)O)NC(=O)[C@H]([C@@H](C)CC)NC(=O)[C@H](CCCCN)NC1=O)C(C)C` [FLPMLAGLAANFLPKIVCKITKKC]: the MIC was 2.3 µM (≈ 6.02 µg/mL) in assay [11]; 37.5 µM (≈ 98.2 µg/mL) in [12]; 9 µM (≈ 23.6 µg/mL) in assay [13]; 75 µM (≈ 196 µg/mL) in [4]; no less than 150 µM in [14]; no less than 75 µM in assay [15]. For the same compound, the MIC in assay [16] is no less than 75 µM; in assay [17], 9 µM (≈ 23.6 µg/mL); in [18], 0.6 µM (≈ 1.57 µg/mL); with Serratia rubidaea X01, 4.6 µM (≈ 12 µg/mL); in assay [19], 9 µM (≈ 23.6 µg/mL); in assay [20], 1.2 µM (≈ 3.14 µg/mL).
With `CC(C)C[C@H](NC(=O)[C@H](CCCCN)NC(=O)[C@H](CC(C)C)NC(=O)[C@H](CC(C)C)NC(=O)[C@H](CCCCN)NC(=O)[C@H](CC(C)C)NC(=O)[C@H](CC(C)C)NC(=O)[C@H](CCCCN)NC(=O)[C@H](CC(C)C)NC(=O)[C@H](CC(C)C)NC(=O)[C@H](CCCCN)NC(=O)[C@H](CC(C)C)NC(=O)[C@H](CC(C)C)NC(=O)[C@@H](N)CCCCN)C(=O)N[C@@H](Cc1c[nH]c2ccccc12)C(=O)N[C@@H](CCCCN)C(=O)O` [KLLKLLKLLKLLKLWK], the MIC worked out at 0.78 µM (≈ 1.55 µg/mL) in [21]; 12.5 µM (≈ 24.9 µg/mL) in assay [22]; 6.25 µM (≈ 12.4 µg/mL) in the assay on Spiroplasma citri R8A2; 6.25 µM (≈ 12.4 µg/mL) in assay [23]; 6.25 µM (≈ 12.4 µg/mL) in [24].
On to `CC[C@H](C)[C@H](NC(=O)[C@H](Cc1ccc(O)cc1)NC(=O)[C@@H](NC(=O)[C@@H]1CCCN1C(=O)[C@H](CCCN=C(N)N)NC(=O)[C@H](CC(N)=O)NC(=O)[C@H](CC(N)=O)NC(=O)[C@@H](N)CCCCN)C(C)C)C(=O)N1CCC[C@H]1C(=O)N[C@@H](CCCCN)C(=O)N1CCC[C@H]1C(=O)N[C@@H](CCCN=C(N)N)C(=O)N1CCC[C@H]1C(=O)N1CCC[C@H]1C(=O)N[C@@H](Cc1cnc[nH]1)C(=O)N1CCC[C@H]1C(=O)N[C@@H](CCCN=C(N)N)C(=O)N[C@@H](CC(C)C)C(N)=O` [KNNRPVYIPKPRPPHPRL], for which the minimal inhibitory concentration (MIC) worked out at 0.298 µM (≈ 0.65 µg/mL) in assay [25]; 0.115 µM (≈ 0.25 µg/mL) with Escherichia coli 45849; 1.27 µM (≈ 2.76 µg/mL) in the assay on Escherichia coli BL21AI; 3.67 µM (≈ 8 µg/mL) in the assay on Escherichia coli D31; 1.84 µM (≈ 4 µg/mL) in assay [26]; 3.67 µM (≈ 8 µg/mL) in [27]. In addition, the results for the MIC in assay [28], in assay [29] and in assay [30] were 0.634 µM (≈ 1.38 µg/mL), 0.459 µM (≈ 1 µg/mL) and 0.162 µM (≈ 0.353 µg/mL), respectively.
As to `CC(C)C[C@H](NC(=O)[C@H](CC(C)C)NC(=O)[C@H](CCCCN)NC(=O)[C@H](CC(C)C)NC(=O)[C@H](CC(C)C)NC(=O)[C@H](CCCCN)NC(=O)[C@H](CCCCN)NC(=O)[C@H](CC(C)C)NC(=O)[C@H](CC(C)C)NC(=O)[C@H](CCCCN)NC(=O)[C@H](CCCCN)NC(=O)[C@H](CC(C)C)NC(=O)[C@H](CC(C)C)NC(=O)[C@H](CCCCN)NC(=O)[C@@H](N)CC(C)C)C(N)=O` [LKLLKKLLKKLLKLL], the MIC in assay [31] is 1 µM (≈ 1.8 µg/mL); against Acinetobacter baumannii, 6.2 µM (≈ 11.2 µg/mL); in assay [4] it was 13 µM (≈ 23.5 µg/mL); in the assay with Escherichia coli D21, 13 µM (≈ 23.5 µg/mL); in the assay with Micrococcus luteus, 2 µM (≈ 3.61 µg/mL); in assay [7] it was 24.9 µM and 25 µM. Besides, the values for the MIC (in assay [32]; in assay [33]; in the assay on Staphylococcus simulans) were 3 µM (≈ 5.41 µg/mL), 4 µM (≈ 7.22 µg/mL) and 2 µM (≈ 3.61 µg/mL), respectively.
